Experimental data taken from patent publication EP0182152B1, “Antitumor antibiotics (LL-E33288 Complex)” (AMERICAN CYANAMID COMPANY, priority 1984, dated 1986).

Assays:
[1] = tested on: Citrobacter diversus; test: in vitro antibacterial activity, agar dilution MIC; format: cell-based; conditions: Citrobacter diversus K 82-84
Procedure: (§1) The in vitro antibacterial activity of LL-E33288 components was determined against a spectrum of gram-positive and gram-negative bacteria by a standard agar dilution method. Mueller-Hinton again containing two-fold decreasing concentrations of the antibiotics were poured into petri plates. the agar surfaces were inoculated with 1 to 5 x 10^4 colong forming units of bacteria by means of the steers replicating device.

[2] = tested on: Serratia marcescens; test: in vitro antibacterial activity, agar dilution MIC; format: cell-based
Procedure: as §1

[3] = tested on: Klebsiella pneumoniae; test: in vitro antibacterial activity, agar dilution MIC; format: cell-based
Procedure: as §1

[4] = tested on: Escherichia coli; test: in vitro antibacterial activity, agar dilution MIC; format: cell-based
Procedure: as §1

[5] = tested on: Enterobacter aerogenes; test: in vitro antibacterial activity, agar dilution MIC; format: cell-based; conditions: Enterobacter aerogenes IO 83-44
Procedure: as §1

[6] = tested on: Citrobacter freundii; test: in vitro antibacterial activity, agar dilution MIC; format: cell-based; conditions: Citrobacter freundii IO 83-13
Procedure: as §1

[7] = tested on: Acinetobacter sp.; test: in vitro antibacterial activity, agar dilution MIC; format: cell-based
Procedure: as §1

[8] = tested on: Providencia stuartii; test: in vitro antibacterial activity, agar dilution MIC; format: cell-based; conditions: Providencia stuartii CMC 83-82
Procedure: as §1

[9] = tested on: Morganella morganii; test: in vitro antibacterial activity, agar dilution MIC; format: cell-based; conditions: Morganella morganii IO 83-18
Procedure: as §1

[10] = tested on: Enterobacter cloacae; test: in vitro antibacterial activity, agar dilution MIC; format: cell-based; conditions: Enterobacter cloacae CMC 84-4
Procedure: as §1

[11] = tested on: M5076 reticular cell Sarcoma; test: M5076 Sarcoma test; format: in vivo, BDF1 mice; conditions: Table VIII, i.p. days 1, 5, 9, 13 and 17, control 28.5 days
Procedure: The M5076 reticular cell Sarcoma is propagated as subcutaneous implants in C57B2/6 female mice. In the assays for antitumor activity, BDF1 mice of either sex were inoculated intraperitoneally with 0.5 ml of a 10% tumor brei. LL-E33288 antibiotics were tested in the M5076 system as a complex (Bromo-complex) of all components. Test compounds were administered intraperitoneally on days 1, 5, 9, 13 and 17 relative to tumor inoculation on day zero. The median survival time in days was determined for each drug dose used on day 60 and the ratio of survival time for treated (T)/control (C) animals were calculated. The results of this test appear in Table VIII compared to the results obtained with Cisplatin. If T/C X 100 (%) is 125 or over, the tested compound is considered to have significant anti-tumor activity.

Structure (SMILES): CCN[C@H]1CO[C@@H](O[C@H]2[C@H](O[C@H]3C#CC=CC#C[C@@]4(O)CC(=O)C(NC(=O)OC)=C3/C4=C\CSSSC)O[C@H](C)[C@@H](NO[C@H]3C[C@H](O)[C@H](SC(=O)c4c(C)c(I)c(O[C@@H]5O[C@@H](C)[C@H](O)[C@@H](OC)[C@H]5O)c(OC)c4OC)[C@@H](C)O3)[C@@H]2O)C[C@@H]1OC (stereo in doubt) [LL-E33288γ1-I]
- Minimal Inhibitory Concentration [1]: 0.25 µg/mL
- Minimal Inhibitory Concentration ([2]; Serratia marcescens CMC 83-27): 0.25 µg/mL
- Minimal Inhibitory Concentration ([2]; Serratia marcescens F35 (MP)): 0.12 µg/mL
- Minimal Inhibitory Concentration ([3]; Klebsiella pneumoniae AD (MP)): 0.25 µg/mL
- Minimal Inhibitory Concentration ([3]; Klebsiella pneumoniae CMC 84-5): 0.25 µg/mL
- Minimal Inhibitory Concentration ([4]; Escherichia coli ATCC 25922): 0.25 µg/mL
- Minimal Inhibitory Concentration ([4]; Escherichia coli CMC 84-11, about 18 hours, 35°C): 0.25 µg/mL
- Minimal Inhibitory Concentration ([4]; Escherichia coli No. 311-(MP)): 0.25 µg/mL
- Minimal Inhibitory Concentration [5]: 0.50 µg/mL
- Minimal Inhibitory Concentration [6]: 0.12 µg/mL
- Minimal Inhibitory Concentration ([7]; Acinetobacter sp. CMC 83-89): 0.12 µg/mL
- Minimal Inhibitory Concentration ([7]; Acinetobacter sp. IO 83-49): 0.06 µg/mL
- Minimal Inhibitory Concentration [8]: 0.25 µg/mL
- Minimal Inhibitory Concentration [9]: 0.25 µg/mL
- Minimal Inhibitory Concentration [10]: 0.50 µg/mL

Structure (SMILES): N.N.[Cl][Pt][Cl] [Cisplatin, reference compound]
- Median Survival ([11]; dose 0.25 mg/kg): 45 days
- T/C x 100 ([11]; dose 0.25 mg/kg): 158%
- Median Survival ([11]; dose 0.5 mg/kg): 44.5 days
- T/C x 100 ([11]; dose 0.5 mg/kg): 156%
- Median Survival ([11]; dose 1 mg/kg): 30 days
- T/C x 100 ([11]; dose 1 mg/kg): 105%
